Values quoted from earlier work, collected in patent US20090215102A1, “Method to Assess Breast Cancer Risk” (priority 2005, published 2009).
Structures can show the parent of a compound that is named as a salt. Where two headings read alike, the source gives them in different places. Each block holds one molecule with its values, some of them ahead of it.

Experiments:
[1] = in vivo
[2] = tested on: estrogen receptors; details: preclinical data
[3] = tested on: rat mammary carcinoma induced by dimethylbenzanthracene (DMBA)
[4] = tested on: breast cancer

half-life of metabolite suggested by time to steady state [1]: ~14 days
Structure (SMILES): CC/C(=C(\c1ccccc1)c1ccc(OCCNC)cc1)c1ccccc1 [N-desmethyl tamoxifen]

clearance following chronic dosing: 40 to 60 L/kg per hour
action in uterine and breast tissues [2]: estrogen antagonist
Structure (SMILES): O=C(c1ccc(OCCN2CCCCC2)cc1)c1c(-c2ccc(O)cc2)sc2cc(O)ccc12 [Raloxifene]

Structure (SMILES): CC/C(=C(\c1ccccc1)c1ccc(OCCN(C)C)cc1)c1ccccc1 [Tamoxifen citrate]
antiestrogenic properties in animal test systems ([3]; animal test systems): potent antieskogenic properties

Structure (SMILES): CC/C(=C(\c1ccccc1)c1ccc(OCCN(C)C)cc1)c1ccccc1 [Tamoxifen]
associated toxicity ([4]; particularly women aged 50 or older): increased risk of endometrial cancer, stroke, pulmonary emboli, and deep vein thrombosis
breast cancer risk reduction ([4]; women with a history of LCIS): 56%
breast cancer risk reduction ([4]; women with a history of atypical ductal hyperplasia): 86%
induction of rat mammary carcinoma induced by DMBA ([3]; rat): inhibits the induction
